{"source": "patent US20120196766A1", "about": "“Therapeutic Use of Farnesyltransferase Inhibitors and Methods of Monitoring the Efficacy Thereof” (priority 2004, published 2012)", "key": {"human PBMC": {"system": "human PBMC", "assay": "LPS-induced cytokine production in human PBMC", "assay_type": "cell-based", "settings": "2 or 5 μM, LPS 10 ng/ml, 10% FBS", "experimental": "(§1) Human IL-6, IL18, IL1β, MCP-1, MMP-9, and mouse IL-6, IL18, TNFα, MCP-1 and IL-1β were measured with ELISA kits (R&D Systems) according to the manufacturer's instructions.\nHeparinized human blood (25 ml) from a healthy donor was overlaid into a 50 ml conical tubes containing 20 ml Ficoll-Paque, and centrifuged for 20 min at 2000 rpm at room temperature and then allowed to stop without using the brake on the centrifuge. The upper layer was aspirated, leaving the mononuclear cell layer undisturbed at the interface. Cells were carefully transferred the to a new […] conical tube. The conical tube was filled with PBS, mixed and centrifuged at 1500 rpm for 15 minutes at room temperature. The supernatant was carefully and completely removed. The cell pellet was resupended in 50 ml of PBS and centrifuged at 1500 rpm for 5 minutes. This wash step was repeated once more. The cells were counted and resuspended cells at 1.7×10^6/ml in low-endotoxin RPMI1640/10% FBS.\nHuman PBMC (180 μl at 1.7×10^6/ml) were pipetted into each well of a 96-well plate. […] Cells were incubated at 37° C., under 5% CO2 for 1 hour, then 10 μl LPS (diluted in medium) were added per well to reach a final concentration of 10 ng/ml. Cells were cultured at 37° C., under 5% CO2. Supernatants were collected at 16 hours, 24 hours and 40 hours of LPS treatment, and IL-6 secretion was quantified."}, "farnesyltransferase": {"molecular_target": "farnesyltransferase (Homo sapiens, UniProt P49354+P49356)", "settings": "cited from earlier work"}, "NF-κB": {"system": "NF-κB", "settings": "cited from earlier work"}, "BALB/c mice": {"system": "BALB/c mice", "assay": "LPS-induced cytokine production in vivo (murine model of LPS-induced inflammation)", "settings": "Mus musculus; 50 mg/kg oral before LPS; 2 hours, first experiment; read-out: inhibition of MIP-1α production", "experimental": "The experiments were performed on female BALB/c mice (6-7 week old; Charles River Laboratories, Inc. MA). […] The control mice received the vehicle (20% cyclodextran) only. 20 μg LPS (Sigma), diluted in PBS, was injected into each mouse intraperitoneally. Blood samples were collected either by eye bleeding or cardiac puncture at 1 and 2 hours after LPS injection in one experiment, and at 2 and 3 hours after LPS injection in a second experiment. Plasma samples were collected by centrifugation, and stored at ≦−20° C. before being tested for cytokines using individual ELISA kits or Luminex analysis (see below).\nas §1\nSamples were tested for cytokines using the Bio-plex cytokine assay kit (Bio-Rad Laboratories, Inc.) according to the manufacturer's instructions. Briefly, 50 μL anti-cytokine antibody conjugated beads were added to wells of a filter plate pre-equilibrated with assay buffer. The beads were washed, then 50 μL of undiluted cell culture supernatant or 4-fold diluted plasma samples were added and incubated for 2 hours. Biotinylated anti-cytokine antibody (25 μL) was added to each well and the plate was incubated with shaking for 1.5 hours. Streptavidin-PE (50 μL) was added to each well and the plate was incubated with shaking for 45 min. between incubations, wells were washed 3 times with 100 μL wash buffer and unbound analytes were filtered using a vacuum manifold. Following the last wash step, 125 μL of assay buffer was added to each well and the plate was placed on a shaker for 10 min. The plate was read on a Luminex^100 instrument (Luminex Corporation, Austin, Tex.) according to the manufacturer's instructions. The concentration of cytokine was determined from a standard curve assayed at the same time."}}, "data": [{"compound": "Cn1cncc1C(N)(c1ccc(Cl)cc1)c1ccc2c(c1)c(-c1cccc(Cl)c1)cc(=O)n2C", "note": "(single isomer, unassigned) [less active enantiomer]", "values": [{"measurement": "LPS-induced IL-6 production", "setting": "human PBMC", "result": "No difference in production"}, {"measurement": "fold less active than tipifarnib (R115777) for inhibition of farnesyltransferase", "setting": "farnesyltransferase", "result": "about 100 fold"}]}, {"compound": "NC(=O)N1CCC(CC(=O)N2CCC([C@H]3c4ncc(Br)cc4CCc4cc(Cl)cc(Br)c43)CC2)CC1", "note": "[SCH 66336, (+)-(R)-4-[2-[4-(3,10-dibromo-8-chloro-5,6-dihydro-11H-benzo[5,6]cyclohepta[1,2-b]pyridin-11-yl)piperidin-1-yl]-2-oxoethyl]piperidine-1-carboxamide]", "values": [{"measurement": "TNF-α induced NF-κB activity", "setting": "NF-κB", "result": "inhibited"}]}, {"compound": "CCC(C)(C)C(=O)O[C@H]1C[C@@H](C)C=C2C=C[C@H](C)[C@H](CC[C@@H]3C[C@@H](O)CC(=O)O3)[C@H]21", "note": "[simvastatin]", "values": [{"measurement": "inhibition at 50 mg/kg", "setting": "BALB/c mice", "result": "~50", "unit": "%"}]}]}
